Source: PubChem BioAssay (NCI)
“And” between values parts separate entries of the source, which are not always exact repeats. Identical values can stand only once.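 Exposure lasted 48 hours, with cells grown in 96-well plates and compounds tested at five concentrations. The concentration for 50% growth inhibition is given as GI50. TGI is the concentration that stops growth completely.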

How the values were obtained:
Assay in all cases: NCI tumour cell line growth inhibition, 48 h
SNB-19 CNS = test system: SNB-19 CNS
PC-3 prostate = test system: PC-3 prostate
RPMI-8226 leukemia = test system: RPMI-8226 leukemia
T-47D breast = test system: T-47D breast
UO-31 renal = test system: UO-31 renal
DU-145 prostate = test system: DU-145 prostate
MDA-MB-231 breast = test system: MDA-MB-231 breast
MALME-3M melanoma = test system: MALME-3M melanoma
MDA-N = test system: MDA-N
SNB-75 CNS = test system: SNB-75 CNS

Row | Structure (SMILES) | TGI (SNB-19 CNS) | TGI (PC-3 prostate) [µM] | TGI (RPMI-8226 leukemia) | TGI (T-47D breast) [µM] | TGI (UO-31 renal) [µM] | TGI (DU-145 prostate) [µM] | TGI (MDA-MB-231 breast) [µM] | TGI (MALME-3M melanoma) [µM] | TGI (MDA-N) | TGI (SNB-75 CNS) | GI50 (SNB-19 CNS) [µM] | GI50 (PC-3 prostate) [µM] | GI50 (RPMI-8226 leukemia) [µM] | GI50 (UO-31 renal) [µM] | GI50 (DU-145 prostate) [µM] | GI50 (MDA-N) [µM]
1 | O=C(NNC(=O)c1ccco1)c1ccco1 | > 100 µM | > 100 | > 100 µM | > 100 | > 100 | > 100 | > 100 | > 100 | > 100 µM | > 100 µM | – | – | – | – | – | –
2 | CC(=O)c1csc2c1C(=O)c1ccccc1C2=O | 5.06 µM | > 100 | 89.9 µM | 50.8 | 6.13 | 3.21 | > 62.9 | 1.7 | 4.21 µM | 3.11 µM | – | – | – | – | – | –
3 | OCCc1ccsc1-c1sc(-c2cc(CCO)c(-c3sc(-c4cc(CCO)c(-c5sccc5CCO)s4)cc3CCO)s2)cc1CCO | 3.01 µM | 2.67 | 2.32 µM | 3.56 | 2.7 | 4.53 | 11.9 | 2.36 | 4.29 µM | 2.89 µM | – | – | – | – | – | –
4 | COc1cc(/C=C(\C)[N+](=O)[O-])cc(OC)c1 | > 56.2 µM | 34.8 | 9.04 µM | 16.3 | 29.1 | 44.6 | 31 | 29.4 | 17.5 µM | 31.8 µM | – | – | – | – | – | –
5 | O=C1c2cc3c(cc2NC(c2ccccc2F)C1O)OCO3 (centres undefined) | > 56.1 µM | > 100 | > 100 µM | > 100 | > 75.8 | > 100 | > 76.2 | > 100 | 8.29 µM | 56.9 µM | – | – | – | – | – | –
6 | CCOC(=O)N1c2ccccc2C(C)=CC(C)C1C (centres undefined) | > 100 µM | > 100 | > 100 µM | > 100 | > 100 | > 100 | 78.4 | > 100 | 27.3 µM | 69 µM | – | – | – | – | – | –
7 | Cc1ccc(C2=CC(=O)/C(=C\C(=O)c3ccc(Br)cc3)O2)c(C)c1 | > 49.1 µM | 11.6 | 10 µM | 43.1 | 27.7 | > 69.5 | 26.8 | 21.3 | 19.9 µM | 28.2 µM | – | – | – | – | – | –
8 | CCOC(=O)[C@@]12C[C@](/C=C/OC)(O[Si](C)(C)C)[C@@]13c1cc(OC)c(OC)cc1CCN3C(=O)C2=O | > 100 µM | > 100 | > 100 µM | > 100 | > 100 | > 100 | > 100 | > 100 | > 100 µM | > 100 µM | – | – | – | – | – | –
9 | COC(=O)[C@@H]1c2c(oc3cc(CO)cc(O)c3c2=O)C=C[C@H]1O | 33.5 µM | 20.1 | 9.72 µM | 9.4 | 14.2 | 11.7 | 27.5 | 4.91 | 18.9 µM | 31.7 µM | – | – | – | – | – | –
10 | Cc1nc2ccc(NCCN(C)C)c3c(=O)c4ccccc4n1c23 | 47.8 µM | 8.8 | 26.2 µM | 39.7 | 11.1 | 6.87 | 5.8 | 18.5 | 12.4 µM | 17.8 µM | – | – | – | – | – | –
11 | O=c1cc(NNc2cccc3ccccc23)[nH]c(=O)[nH]1 | 29 µM | 27 | 33.3 µM | 29.6 | 29.8 | 28.6 | 26.2 | 31.8 | 24.4 µM | 31.4 µM | – | – | – | – | – | –
12 | CC(=O)OCC1OC(OCCCOP(=O)(OCCC#N)OCC2OC(n3cnc4c(N)ncnc43)C(OC(=O)c3ccccc3)C2OC(=O)c2ccccc2)C(OC(C)=O)C(OC(C)=O)C1OC(C)=O (centres undefined) | > 100 µM | > 100 | > 100 µM | > 100 | > 100 | > 100 | > 100 | 5.53 | > 100 µM | > 100 µM | – | – | – | – | – | –
13 | CCCC(=O)Nc1cc(C(=O)N2C[C@H]3C[C@@]34C2=CC(=O)c2[nH]cc(C)c24)n(COC)c1 | 29.1 µM and 13 µM | – | 2.84 µM and 0.776 µM | 1.49 | 3.64 | – | 3 | 0.439 | 1.59 µM and 0.316 µM | 1.45 µM and 0.718 µM | 0.326 | 0.147 | 0.176 | 0.561 | 0.0776 | 0.164
14 | CN(C)S(=O)(=O)c1ccc2[nH]c(O)c(C3=Nc4ccccc4C3=O)c2c1 | 42.6 µM | 90.4 | > 100 µM | > 100 | > 100 | 94 | 52.3 | > 100 | > 100 µM | 10.3 µM | – | – | – | – | – | –
15 | CCOC(=O)Cc1c(C(=O)OCC)[n+](=O)c2cc(Cl)c(Cl)cc2n1[O-] | 11.9 µM | 4.69 | 2.18 µM | 6.76 | 3.36 | 3.68 | 7.02 | 3.21 | 11.9 µM | 4.63 µM | – | – | – | – | – | –
16 | Nc1nc(Sc2ccc([N+](=O)[O-])c3nonc23)c2[nH]cnc2n1 | 31.4 µM | 18 | 5.62 µM | 4.43 | 2.07 | 16.2 | 13.7 | 5.03 | 12.2 µM | 12.2 µM | – | – | – | – | – | –
17 | CNC(=O)[C@H](Cc1ccccc1)NC(=O)N(CCC#N)CCN(C(=O)N[C@@H](Cc1ccccc1)C(=O)OC)c1ccccc1 | > 100 µM | > 100 | > 100 µM | > 100 | > 100 | > 100 | > 100 | > 100 | > 100 µM | > 100 µM | – | – | – | – | – | –
18 | COC(=O)c1ccccc1C1CN=NC12Cc1ccc(C)cc1C2=O (centres undefined) | > 100 µM | > 100 | > 100 µM | > 100 | > 100 | > 100 | > 100 | > 100 | > 100 µM | > 100 µM | – | – | – | – | – | –
19 | COc1cccc(NC(=O)CC(=O)NN)c1 | > 100 µM | > 100 | > 100 µM | > 100 | > 100 | > 100 | > 100 | > 100 | > 100 µM | > 100 µM | – | – | – | – | – | –
20 | Nc1cccc(-c2cc(=O)c3cc4c(cc3[nH]2)OCO4)c1 | > 48.5 µM | 13 | > 100 µM | > 100 | > 75.9 | > 100 | 8.64 | > 100 | 0.474 µM | > 100 µM | – | – | – | – | – | –
21 | O=C(/C=C/c1ccc(-c2ccccc2)cc1)NCc1ccc(C(=O)NCCc2ccccc2)cc1 | > 100 µM | > 100 | > 100 µM | > 100 | > 100 | > 100 | > 100 | > 100 | > 100 µM | > 100 µM | – | – | – | – | – | –
22 | Clc1ccc(-c2cn3c(nc4ccccc43)c(-c3ccccc3)n2)cc1 | 32.6 µM | 47 | > 100 µM | > 75.5 | > 60 | > 100 | > 100 | > 63.7 | > 100 µM | > 36.6 µM | – | – | – | – | – | –
23 | O/N=C\c1c2c(cc3c1CCC3)CCC2 | > 100 µM | > 100 | > 100 µM | > 100 | > 100 | > 100 | > 100 | > 100 | > 100 µM | > 100 µM | – | – | – | – | – | –
24 | Nc1nc(N)c2nc(CN(C=O)c3ccc(C(=O)O)cc3)cnc2n1 | > 100 µM | > 100 | > 100 µM | > 100 | > 100 | > 100 | > 100 | > 100 | > 100 µM | > 100 µM | – | – | – | – | – | –
25 | CC1CC(=O)N(N(C)C)C2(C#N)C(=O)N=C(N)C12C#N (centres undefined) | > 100 µM | > 100 | 99.1 µM | > 100 | > 100 | > 100 | > 100 | > 100 | > 100 µM | > 100 µM | – | – | – | – | – | –
26 | CC(=O)OC1CCn2c1nc1cc([N+](=O)[O-])c(C)cc12 (centres undefined) | > 100 µM | > 100 | > 100 µM | > 100 | > 100 | > 100 | > 100 | > 100 | > 100 µM | > 100 µM | – | – | – | – | – | –
27 | CCOC(=O)C(C)c1nc2cc(F)c(F)cc2[nH]c1=O (centres undefined) | > 100 µM | > 100 | > 100 µM | > 100 | > 100 | > 100 | > 100 | > 100 | > 100 µM | > 100 µM | – | – | – | – | – | –
28 | O=C1NC(N2CCCC(CO)C2)=N/C1=C\c1cccs1 (centres undefined) | > 100 µM | > 100 | > 100 µM | > 100 | > 100 | > 100 | > 100 | > 100 | > 100 µM | > 100 µM | – | – | – | – | – | –
29 | NC(=S)NNCC(=O)CC(O)(C(F)(F)F)C(F)(F)Cl (centres undefined) | > 100 µM | > 100 | > 100 µM | > 100 | > 100 | > 100 | > 100 | > 100 | > 100 µM | > 100 µM | – | – | – | – | – | –
30 | CC(=O)O[C@H]1[C@@H](N2CCOCC2)C[C@H]2[C@@H]3CC=C4C[C@@H](N5CCCC5)CC[C@]4(C)[C@H]3CC[C@@]21C | > 100 µM | > 100 | > 100 µM | > 100 | > 100 | > 100 | > 100 | > 100 | > 100 µM | > 100 µM | – | – | – | – | – | –
